Where “and” joins values, the source holds several entries; their conditions need not be identical. Equal entries are not always repeated.
Assay: Pharmacokinetics assay in male CD-1 mice (plasma, LC-MS/MS, non-compartmental analysis);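 for Plasma concentration: plasma concentration of test compound at each sampling time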
Assay type: in vivo
Procedure: Pharmacokinetics Assay. A pharmacokinetics assay of Example 1 was performed by WuXi AppTec Inc., 6 Cedarbrook Drive, Cranbury, NJ 08512 USA. This study was conducted in 6 to 8-week-old male CD-1 mice (Hilltop Laboratories). Animals were group housed during acclimation and throughout the study. The animal room environment was controlled according to facility operation (temperature: 20 to 26° C.; relative humidity: 30 to 70%; lighting: 12 hour light/dark cycle). Temperature, relative humidity, and lighting were monitored by PointView Environmental Monitoring System. Animals were fed certified pellet diet (Certified Rodent Diet #5002, LabDiet). The diet lot number and specifications were recorded in study notebook and archived at WuXi AppTec. Water (reverse osmosis) was provided to the animals ad libitum. The animals were fasted overnight and food was returned 4 hours post-dose.
An appropriate amount of Example compound 1 above (N^1-(3,5-Dimethoxyphenyl)-N^2-isopropyl-N^1-(3-(1-methyl-1H-pyrazol-4-yl)cinnolin-6-yl)ethane-1,2-diamine) was accurately weighed and mixed with an appropriate volume of 20% hydroxypropyl-(3-cyclodextrin; 80% H2O (w/v) to give either a clear solution or uniform suspension (PO only). Blood samples of about 30-40 μL were collected from peripheral veins at pre-defined time points. into pre-chilled micro-tubes containing K2EDTA as anti-coagulant and kept on ice until centrifugation. The blood samples were centrifuged at 4° C., 3000g for 15 min within half an hour of collection. Plasma was collected into 96-well plate(s), quickly frozen on dry ice and stored at −70±10° C. until LC-MS/MS analysis. The LC-MS/MS analytical method is described as follows:
The pharmacokinetics of Example Compound 1 were analyzed using the Phoenix WinNonlin software (version 6.3) based on the non-compartmental analysis model and the results are shown below in FIGS. 1 and 2 and in Tables 1 and 2. M7, M8, M9, etc. refer to particular mouse subjects used in the study.

[1] = IV 1.00 mg/kg, mouse, individual mice M7-M9
[2] = PO 10.0 mg/kg, mouse, individual mice M10-M12

COc1cc(OC)cc(N(CCNC(C)C)c2ccc3nnc(-c4cnn(C)c4)cc3c2)c1 [Example 1, N^1-(3,5-Dimethoxyphenyl)-N^2-isopropyl-N^1-(3-(1-methyl-1H-pyrazol-4-yl)cinnolin-6-yl)ethane-1,2-diamine]
Plasma concentration (IV 1.00 mg/kg, mouse, 299 s, individual mice M7-M9): 294 ng/mL and 444 ng/mL
Plasma concentration (IV 1.00 mg/kg, mouse, 0.250 h, individual mice M7-M9): 197 ng/mL and 143 ng/mL and 292 ng/mL
Plasma concentration (IV 1.00 mg/kg, mouse, 0.500 h, individual mice M7-M9): 80.8 ng/mL and 86.8 ng/mL and 206 ng/mL
Plasma concentration (IV 1.00 mg/kg, mouse, 1.00 h, individual mice M7-M9): 58.0 ng/mL and 29.3 ng/mL and 86.4 ng/mL
Plasma concentration (IV 1.00 mg/kg, mouse, 2.00 h, individual mice M7-M9): 15.2 ng/mL and 8.83 ng/mL and 17.9 ng/mL
Plasma concentration (IV 1.00 mg/kg, mouse, 4.00 h, individual mice M7-M9): 3.17 ng/mL and 3.64 ng/mL
Plasma concentration (IV 1.00 mg/kg, mouse, 8.00 h, individual mice M7-M9): 1.73 ng/mL and 1.42 ng/mL
Plasma concentration (IV 1.00 mg/kg, mouse, 24.0 h, individual mice M7-M9): 2.21 ng/mL and BQL
AUC0-inf [1]: 197 ng·h/mL and 305 ng·h/mL
AUC0-last [1]: 188 ng·h/mL and 303 ng·h/mL
AUCExtra [1]: 1.15% and 4.42% and 0.637%
AUMCExtra [1]: 10.6% and 26.9% and 6.89%
C0 [1]: 421 ng/mL and 547 ng/mL
Cl [1]: 84.8 mL/min/kg and 54.7 mL/min/kg
MRT0-inf [1]: 2.80 h and 4.58 h and 0.866 h
MRT0-last [1]: 2.53 h and 3.50 h and 0.812 h
T1/2 [1]: 1.34 h and 2.72 h and 0.948 h
Tlast [1]: 24.0 h (2×) and 8.00 h
Vdss [1]: 12.2 L/kg and 23.3 L/kg and 2.84 L/kg
AUCExtra (IV 1.00 mg/kg, mouse, mean): 2.07%
AUMCExtra (IV 1.00 mg/kg, mouse, mean): 14.8%
Tlast (IV 1.00 mg/kg, mouse, mean): 18.7 h
Plasma concentration (PO 10.0 mg/kg, mouse, 0.167 h, individual mice M10-M12): 43.6 ng/mL and 46.8 ng/mL and 147 ng/mL
Plasma concentration (PO 10.0 mg/kg, mouse, 0.500 h, individual mice M10-M12): 71.0 ng/mL and 102 ng/mL and 269 ng/mL
Plasma concentration (PO 10.0 mg/kg, mouse, 1.00 h, individual mice M10-M12): 47.6 ng/mL and 51.9 ng/mL and 170 ng/mL
Plasma concentration (PO 10.0 mg/kg, mouse, 2.00 h, individual mice M10-M12): 14.1 ng/mL and 29.7 ng/mL and 89.5 ng/mL
Plasma concentration (PO 10.0 mg/kg, mouse, 4.00 h, individual mice M10-M12): 12.5 ng/mL and 9.57 ng/mL and 22.8 ng/mL
Plasma concentration (PO 10.0 mg/kg, mouse, 6.00 h, individual mice M10-M12): 20.7 ng/mL and 7.02 ng/mL and 4.44 ng/mL
Plasma concentration (PO 10.0 mg/kg, mouse, 8.00 h, individual mice M10-M12): 13.2 ng/mL and 4.84 ng/mL and 1.77 ng/mL
Plasma concentration (PO 10.0 mg/kg, mouse, 24.0 h, individual mice M10-M12): 7.49 ng/mL and 1.56 ng/mL and BQL
AUC0-inf [2]: 488 ng·h/mL and 235 ng·h/mL and 443 ng·h/mL
AUC0-last [2]: 333 ng·h/mL and 216 ng·h/mL and 441 ng·h/mL
AUCExtra [2]: 31.7% and 8.42% and 0.593%
AUMCExtra [2]: 69.7% and 41.4% and 3.41%
Cmax [2]: 71.0 ng/mL and 102 ng/mL and 269 ng/mL
MRT0-inf [2]: 20.3 h and 7.47 h and 1.65 h
MRT0-last [2]: 9.01 h and 4.78 h and 1.60 h
T1/2 [2]: 14.3 h and 8.81 h and 1.03 h
Tlast [2]: 24.0 h (2×) and 8.00 h
AUCExtra (PO 10.0 mg/kg, mouse, mean): 13.6%
AUMCExtra (PO 10.0 mg/kg, mouse, mean): 38.2%
Tlast (PO 10.0 mg/kg, mouse, mean): 18.7 h
concentration at 0.083 h (male, CD-1, mouse, plasma, iv, 1 mg/kg, IV 1.00 mg/kg, 299 s, individual mice M7-M9): 341 ng/mL

— patent US20240002365A1, “PYRIDAZINE AND 1,2,4-TRIAZINE DERIVATIVES AS FGFR KINASE INHIBITORS” (BETA PHARMA, INC., priority 2020, published 2024)
